# Assay results taken from patent US20160186066A1, “METHODS AND SYSTEMS FOR PROCESSING CELLULOSIC BIOMASS” (priority 2014, published 2016).
# Where two headings read alike, the source gives them in different places.
# What was measured:
# [1] = MIBC re-extraction (step #2) of layer from initial MIBC extraction (Example 4); type: physicochemical
# Experimental: One part of the upper organic-rich upper layer from Example 3 was removed prior to distillation, extracted with one part by weight of MIBC solvent, by shaking for 3 minutes in a vial via mechanical shaker, followed by allowing to phase separate overnight at 25° C.
# Extraction efficiency as measured by the partition coefficient K increased with increasing carbon number for the light alcohol. Glycols EG and PG were not extracted.
# [2] = 3 min
# Experimental: (§1) The reaction product mixture was extracted with one part of by weight solvent, with mixing for a minimum of three minutes, followed by phase separation overnight at 25° C.
# [3] = Comparison of extraction solvents on simulated aqueous reaction product mixture (Examples 5A-5D)
# Experimental: as §1
# [4] = Extraction of phenols from 1% aqueous solution with toluene or heptane (Examples 5E-5H); details: for amount remaining in / lost to the aqueous phase: Ex 5F, 1% MPP in water extracted with heptane; for amount left in / lost to the aqueous layer: Ex 5G, 1% m-cresol solution extracted with toluene
# [5] = Solubility of MPP in deionized water (turbidity); type: physicochemical; details: 1 wt % solution, room temperature
smiles,measurement,setting,value
"OCCO [EG, ethylene glycol]",Extr #2 % extract,[1],not extracted
"CC(C)CC(C)O (stereo not drawn) [MIBC, methylisobutylcarbinol]",oil/water partition coefficient of extraction solvent components,[2],48
"CCCc1ccc(O)c(OC)c1 [MPP, 2-methoxy-4-propylphenol]",partition coefficient for distribution of extraction solvent between organic and aqueous layers,"[3]; Ex 5B, MPP as extraction solvent",612
same,oil/water partition coefficient of extraction solvent components,"[3]; Ex 5C, MPP/MIBC mixture as extraction solvent",462
same,"partition coefficient, weight percent in organic layer extract vs. lower layer aqueous fraction","[4]; Ex 5E, 1 wt % MPP in water extracted with one part toluene",161.7
same,amount remaining in / lost to the aqueous phase,[4],0.08 wt %
same,solubility in deionized water (turbidity),[5],only partial solubility
"CC(O)CO (stereo not drawn) [PG, 1,2-propylene glycol]",Extr #2 % extract,[1],not extracted
"Cc1cccc(O)c1 [cresol, meta-cresol]",amount left in / lost to the aqueous layer,[4],0.05 wt %
CCCCCCC [heptane],amount remaining in / lost to the aqueous phase,[4],0.07 wt %
same,lost to the aqueous layer,"[4]; Ex 5H, 1% m-cresol solution extracted with heptane",0.015%
Cc1ccccc1 [toluene],amount left in / lost to the aqueous layer,[4],0.04 wt %
